Test results taken from publication PMC3138047 (Evidence-based Complementary and Alternative Medicine : eCAM, 2011).

Tests used:
Assay in all cases: [3H]-dTTP incorporation into poly(dA)/oligo(dT)[…]
Format in all cases: biochemical
human pol λ [1] = target: T1, human pol λ (Homo sapiens, UniProt Q9UGP5); conditions: read-out: relative pol activity at 100 μM
T1 construct: gene POLL; recombinant, His-tagged
T1 sequence (Q9UGP5 1-575): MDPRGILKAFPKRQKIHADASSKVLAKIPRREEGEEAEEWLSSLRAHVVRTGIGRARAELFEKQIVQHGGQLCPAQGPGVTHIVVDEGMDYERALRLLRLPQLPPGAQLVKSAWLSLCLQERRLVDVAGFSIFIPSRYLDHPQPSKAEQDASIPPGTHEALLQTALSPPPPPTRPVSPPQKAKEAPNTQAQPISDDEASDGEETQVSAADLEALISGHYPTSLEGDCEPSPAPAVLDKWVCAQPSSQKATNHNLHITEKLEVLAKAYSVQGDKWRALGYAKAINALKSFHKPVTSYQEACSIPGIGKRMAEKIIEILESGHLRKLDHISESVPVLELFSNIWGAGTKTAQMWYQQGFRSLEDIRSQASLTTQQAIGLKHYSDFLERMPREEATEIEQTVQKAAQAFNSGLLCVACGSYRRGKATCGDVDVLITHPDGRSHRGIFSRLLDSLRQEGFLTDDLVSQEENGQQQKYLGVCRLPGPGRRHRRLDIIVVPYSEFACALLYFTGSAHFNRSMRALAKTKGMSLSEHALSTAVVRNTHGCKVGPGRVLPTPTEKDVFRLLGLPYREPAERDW

calf pol α = target: T2, calf pol α (Bos taurus, UniProt A0AAA9THK8); conditions: read-out: relative pol activity at 100 μM
T2 construct: gene POLA1; with DNA polymerase alpha subunit B; DNA primase small subunit; DNA primase large subunit

human pol κ [2] = target: T3, human pol κ (Homo sapiens, UniProt Q9UBT6); conditions: read-out: relative pol activity at 100 μM
T3 construct: gene POLK; truncated, residues 1-560, C-terminal 6xHis tag, produced in E. coli
T3 sequence (Q9UBT6 1-560): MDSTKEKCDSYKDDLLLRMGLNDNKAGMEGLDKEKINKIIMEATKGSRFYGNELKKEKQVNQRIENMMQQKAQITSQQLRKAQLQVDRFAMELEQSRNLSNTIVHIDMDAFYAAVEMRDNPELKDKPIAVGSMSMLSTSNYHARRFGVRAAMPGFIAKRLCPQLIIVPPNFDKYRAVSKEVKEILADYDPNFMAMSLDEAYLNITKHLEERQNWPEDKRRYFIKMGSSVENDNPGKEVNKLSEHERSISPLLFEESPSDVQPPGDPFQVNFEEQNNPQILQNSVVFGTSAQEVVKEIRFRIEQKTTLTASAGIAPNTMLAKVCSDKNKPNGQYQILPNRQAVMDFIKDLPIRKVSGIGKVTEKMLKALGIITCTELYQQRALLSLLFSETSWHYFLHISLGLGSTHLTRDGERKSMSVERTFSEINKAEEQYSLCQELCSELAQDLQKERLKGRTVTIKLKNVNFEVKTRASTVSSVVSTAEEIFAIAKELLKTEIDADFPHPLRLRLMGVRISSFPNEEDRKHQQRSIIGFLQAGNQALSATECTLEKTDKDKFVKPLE

human pol κ [3] = target: T3, human pol κ
human pol γ = target: T4, human pol γ (Homo sapiens, UniProt P54098)
T4 construct: gene POLG
T4 sequence (P54098 1-1239): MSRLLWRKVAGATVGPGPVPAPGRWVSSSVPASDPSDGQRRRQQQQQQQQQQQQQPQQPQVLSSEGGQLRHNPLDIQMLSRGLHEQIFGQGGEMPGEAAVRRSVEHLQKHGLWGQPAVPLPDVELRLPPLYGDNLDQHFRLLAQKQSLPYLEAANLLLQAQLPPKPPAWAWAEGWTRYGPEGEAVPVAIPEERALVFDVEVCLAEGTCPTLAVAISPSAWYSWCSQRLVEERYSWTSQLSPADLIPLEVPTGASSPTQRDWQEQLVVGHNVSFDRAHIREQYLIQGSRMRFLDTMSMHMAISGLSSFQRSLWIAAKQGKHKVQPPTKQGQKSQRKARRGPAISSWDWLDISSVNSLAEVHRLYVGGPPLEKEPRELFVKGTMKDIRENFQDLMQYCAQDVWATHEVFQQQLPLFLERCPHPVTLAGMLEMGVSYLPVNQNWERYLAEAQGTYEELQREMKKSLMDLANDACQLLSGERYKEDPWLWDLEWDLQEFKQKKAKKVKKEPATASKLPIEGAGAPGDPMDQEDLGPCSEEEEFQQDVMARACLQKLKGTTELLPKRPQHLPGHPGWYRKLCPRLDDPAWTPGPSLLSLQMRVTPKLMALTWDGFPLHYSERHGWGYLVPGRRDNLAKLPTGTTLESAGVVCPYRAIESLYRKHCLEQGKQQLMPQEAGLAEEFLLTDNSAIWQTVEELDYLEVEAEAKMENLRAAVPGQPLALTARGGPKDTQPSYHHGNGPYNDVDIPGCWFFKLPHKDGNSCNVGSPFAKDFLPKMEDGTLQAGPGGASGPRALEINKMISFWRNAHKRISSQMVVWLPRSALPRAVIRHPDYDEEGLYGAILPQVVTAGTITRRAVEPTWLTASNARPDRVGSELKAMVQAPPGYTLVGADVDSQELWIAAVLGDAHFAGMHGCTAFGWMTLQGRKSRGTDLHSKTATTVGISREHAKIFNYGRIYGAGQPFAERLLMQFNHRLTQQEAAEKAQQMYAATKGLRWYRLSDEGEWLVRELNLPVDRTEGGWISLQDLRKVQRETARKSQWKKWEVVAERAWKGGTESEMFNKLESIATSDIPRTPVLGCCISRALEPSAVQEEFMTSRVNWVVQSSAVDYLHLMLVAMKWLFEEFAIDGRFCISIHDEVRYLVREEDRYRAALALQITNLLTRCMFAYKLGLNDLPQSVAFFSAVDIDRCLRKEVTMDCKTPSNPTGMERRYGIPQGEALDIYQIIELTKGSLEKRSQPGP

human pol λ [4] = target: T1, human pol λ

T2 sequence (A0AAA9THK8 1-1487): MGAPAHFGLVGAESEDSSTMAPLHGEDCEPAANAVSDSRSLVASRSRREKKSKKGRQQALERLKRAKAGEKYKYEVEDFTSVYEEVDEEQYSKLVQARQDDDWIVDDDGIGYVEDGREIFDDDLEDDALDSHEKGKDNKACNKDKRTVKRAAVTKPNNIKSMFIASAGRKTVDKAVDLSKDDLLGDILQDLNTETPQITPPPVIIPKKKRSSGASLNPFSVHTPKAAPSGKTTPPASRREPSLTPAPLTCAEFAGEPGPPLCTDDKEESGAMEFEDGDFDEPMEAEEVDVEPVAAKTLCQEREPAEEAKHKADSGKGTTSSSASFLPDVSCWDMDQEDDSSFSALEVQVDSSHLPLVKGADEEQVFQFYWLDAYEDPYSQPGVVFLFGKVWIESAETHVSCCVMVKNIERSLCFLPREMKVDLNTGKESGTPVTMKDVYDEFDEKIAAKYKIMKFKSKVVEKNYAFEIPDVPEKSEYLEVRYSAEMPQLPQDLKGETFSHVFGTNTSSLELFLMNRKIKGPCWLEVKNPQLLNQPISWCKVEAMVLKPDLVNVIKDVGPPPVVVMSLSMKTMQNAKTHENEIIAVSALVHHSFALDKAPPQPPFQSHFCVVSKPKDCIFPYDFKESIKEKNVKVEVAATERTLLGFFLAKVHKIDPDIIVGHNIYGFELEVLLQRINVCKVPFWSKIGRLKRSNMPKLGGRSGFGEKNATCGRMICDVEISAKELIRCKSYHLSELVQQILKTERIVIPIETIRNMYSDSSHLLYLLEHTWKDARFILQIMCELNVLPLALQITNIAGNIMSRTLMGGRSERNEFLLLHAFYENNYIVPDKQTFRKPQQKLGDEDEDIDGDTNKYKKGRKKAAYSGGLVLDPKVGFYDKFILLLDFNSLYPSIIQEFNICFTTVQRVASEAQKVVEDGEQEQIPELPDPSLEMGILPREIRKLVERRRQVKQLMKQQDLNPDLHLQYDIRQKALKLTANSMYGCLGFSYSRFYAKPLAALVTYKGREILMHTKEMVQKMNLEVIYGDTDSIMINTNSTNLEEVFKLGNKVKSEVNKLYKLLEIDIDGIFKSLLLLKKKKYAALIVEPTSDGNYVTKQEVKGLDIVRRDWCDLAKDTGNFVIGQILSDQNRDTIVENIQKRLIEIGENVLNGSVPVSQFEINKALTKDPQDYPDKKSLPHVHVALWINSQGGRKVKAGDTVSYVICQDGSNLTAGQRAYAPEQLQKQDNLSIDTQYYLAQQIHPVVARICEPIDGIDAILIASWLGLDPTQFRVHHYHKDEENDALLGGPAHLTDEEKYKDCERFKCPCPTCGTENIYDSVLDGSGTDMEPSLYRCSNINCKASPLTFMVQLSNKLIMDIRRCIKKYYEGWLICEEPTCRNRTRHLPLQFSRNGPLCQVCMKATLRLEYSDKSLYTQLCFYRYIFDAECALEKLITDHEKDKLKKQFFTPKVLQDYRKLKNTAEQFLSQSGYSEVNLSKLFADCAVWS
T2 sequence (Q58D13 whole entry partner): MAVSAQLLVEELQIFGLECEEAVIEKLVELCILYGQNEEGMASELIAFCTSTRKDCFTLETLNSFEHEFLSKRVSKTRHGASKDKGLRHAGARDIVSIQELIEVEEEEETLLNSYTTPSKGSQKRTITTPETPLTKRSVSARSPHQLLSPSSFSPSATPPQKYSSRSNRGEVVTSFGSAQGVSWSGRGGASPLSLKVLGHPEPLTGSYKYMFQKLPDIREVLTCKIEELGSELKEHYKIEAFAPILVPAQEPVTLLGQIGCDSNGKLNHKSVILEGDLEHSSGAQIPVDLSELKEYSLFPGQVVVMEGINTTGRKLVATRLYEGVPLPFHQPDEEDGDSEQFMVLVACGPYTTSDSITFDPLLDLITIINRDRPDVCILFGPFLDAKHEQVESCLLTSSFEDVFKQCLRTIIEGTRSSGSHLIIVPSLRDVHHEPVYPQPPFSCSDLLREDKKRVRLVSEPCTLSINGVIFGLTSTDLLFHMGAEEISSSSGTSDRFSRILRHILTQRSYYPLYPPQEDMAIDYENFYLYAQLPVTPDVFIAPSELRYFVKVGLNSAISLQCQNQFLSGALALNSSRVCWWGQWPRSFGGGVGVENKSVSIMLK
T2 sequence (A0A3Q1MF00 1-418 partner): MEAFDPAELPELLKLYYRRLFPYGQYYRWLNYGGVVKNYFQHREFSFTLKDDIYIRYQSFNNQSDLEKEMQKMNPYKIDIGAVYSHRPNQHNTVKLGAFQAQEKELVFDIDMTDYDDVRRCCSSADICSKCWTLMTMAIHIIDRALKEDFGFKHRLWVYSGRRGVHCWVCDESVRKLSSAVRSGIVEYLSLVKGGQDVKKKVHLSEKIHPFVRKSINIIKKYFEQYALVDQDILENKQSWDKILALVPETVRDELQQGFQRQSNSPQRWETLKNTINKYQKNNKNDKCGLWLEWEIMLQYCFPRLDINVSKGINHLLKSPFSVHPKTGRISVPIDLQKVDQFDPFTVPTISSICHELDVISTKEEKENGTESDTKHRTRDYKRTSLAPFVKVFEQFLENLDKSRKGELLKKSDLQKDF
T2 sequence (A0JNF4 1-506 partner): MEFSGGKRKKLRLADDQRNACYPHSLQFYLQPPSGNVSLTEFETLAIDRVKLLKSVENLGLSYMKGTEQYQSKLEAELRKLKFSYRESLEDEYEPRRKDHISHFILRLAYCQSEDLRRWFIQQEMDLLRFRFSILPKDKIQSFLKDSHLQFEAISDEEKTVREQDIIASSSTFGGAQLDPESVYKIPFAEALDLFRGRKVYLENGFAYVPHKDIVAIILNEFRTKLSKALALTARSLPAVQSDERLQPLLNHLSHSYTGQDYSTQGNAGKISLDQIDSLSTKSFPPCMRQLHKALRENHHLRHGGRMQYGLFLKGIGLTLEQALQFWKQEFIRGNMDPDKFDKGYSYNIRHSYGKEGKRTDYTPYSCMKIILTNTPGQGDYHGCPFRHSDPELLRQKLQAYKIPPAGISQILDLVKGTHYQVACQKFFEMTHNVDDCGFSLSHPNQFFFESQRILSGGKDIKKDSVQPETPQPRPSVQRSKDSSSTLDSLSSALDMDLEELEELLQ

Structure (SMILES) | activity at 100 µM (human pol λ [1]) | activity at 100 µM (calf pol α) | activity at 100 µM (human pol κ [2]) | IC50 (human pol κ [3]) | IC50 (human pol γ) | IC50 (human pol λ [4])
CC1(C)[C@@H](O[C@H]2O[C@H](C(=O)O)[C@@H](O)[C@H](O)[C@H]2O[C@@H]2O[C@H](C(=O)O)[C@@H](O)[C@H](O)[C@H]2O)CC[C@]2(C)[C@H]3C(=O)C=C4[C@@H]5C[C@@](C)(C(=O)O)CC[C@]5(C)CC[C@@]4(C)[C@]3(C)CC[C@@H]12 [compound 1, 3-O-(2-O-β-D-glucopyranuronosyl-α-D-glucopyranuronosyl)-18β-glycyrrhetinic acid] | < 50% | < 50% | < 50% |  |  | 
CC1(C)[C@@H](O)CC[C@]2(C)[C@H]3C(=O)C=C4[C@@H]5C[C@@](C)(C(=O)O)CC[C@]5(C)CC[C@@]4(C)[C@]3(C)CC[C@@H]12 [compound 3, Glycyrrhetinic acid] |  |  |  | 15.8 µM | 19.3 µM | 13.7 µM
CC1(C)[C@@H](O[C@@H]2O[C@H](C(=O)O)[C@@H](O)[C@H](O)[C@H]2O[C@@H]2O[C@H](C(=O)O)[C@@H](O)[C@H](O)[C@H]2O)CC[C@]2(C)[C@H]3C(=O)C=C4[C@@H]5C[C@@](C)(C(=O)O)CC[C@]5(C)CC[C@@]4(C)[C@]3(C)CC[C@@H]12 [compound 2, dipotassium glycyrrhizate] | < 50% | < 50% |  |  |  | 
